The values below are quoted from earlier work in US12661367B2, “Streptomyces spororaveus strain and a new antibiotics against bacteria and fungi” (National Taipei University of Technology, priority 2022, dated 2026).

The conditions of data set [1]: orally used.

In the case of `C[C@@H]1C/C=C/C=C/C=C/C=C/[C@H](O[C@@H]2O[C@H](C)[C@@H](O)[C@H](N)[C@@H]2O)C[C@@H]2O[C@](O)(C[C@@H](O)C[C@H]3O[C@@H]3/C=C/C(=O)O1)C[C@H](O)[C@H]2C(=O)O` [natamycin], the solubility in water entry is “nearly insoluble in water”. In data set [1], the bioavailability entry is listed as “low bioavailability”.
